Legend:
Assay in all cases: relative viability (nuclei count vs DMSO), 5 days (fraction); higher = more cells survive
[1] = compound: C[C@@H](C(=O)N[C@@H](C1CCCCC1)C(=O)N2CCC[C@H]2C(=O)N[C@@H]3[C@@H](CC4=CC=CC=C34)OCC#CC#CCO[C@@H]5CC6=CC=CC=C6[C@@H]5NC(=O)[C@@H]7CCCN7C(=O)[C@H](C8CCCCC8)NC(=O)[C@H](C)NC)NC [AZD5582] + O=C(CCCCCCC(=O)Nc1ccccc1)NO [Vorinostat] (partner 1 µM)
How it was run: (§1)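 Relative viability divides the nuclei count in treated wells by that in vehicle wells. Lung cancer cell lines were seeded in 1536-well plates, dosed by pin tool the next day, and fixed and stained after 5 days in one step with final 0.05% Triton X-100, 1% formaldehyde and 1 ug/ml Hoechst. Dosing was a single drug or a fixed anchor-drug dose plus five library-drug doses (not always all listed) in √10 steps, and values are medians of duplicate plates imaged at 4×.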

[2] = compound: Cn1nnc2c(C(N)=O)ncn2c1=O [Temozolomide] + Cc1nc(Nc2ncc(C(=O)Nc3c(C)cccc3Cl)s2)cc(N2CCN(CCO)CC2)n1 [Dasatinib] (partner 0.075 µM)
How it was run: as §1

[3] = compound: Cn1nnc2c(C(N)=O)ncn2c1=O [Temozolomide] + Nc1ncn([C@H]2C[C@H](O)[C@@H](CO)O2)c(=O)n1 [Decitabine] (partner 2 µM)
How it was run: as §1

[4] = compound: Cn1nnc2c(C(N)=O)ncn2c1=O [Temozolomide] + O=C(CCCCCCC(=O)Nc1ccccc1)NO [Vorinostat] (partner 1 µM)
How it was run: as §1

Cell Line	relative viability ([1]; first compound 0.001581 µM)	relative viability ([1]; first compound 0.005 µM)	relative viability ([1]; first compound 0.01581 µM)	relative viability ([1]; first compound 0.05 µM)	relative viability ([2]; first compound 0.2 µM)	relative viability ([2]; first compound 0.6325 µM)	relative viability ([2]; first compound 2 µM)	relative viability ([2]; first compound 6.325 µM)	relative viability ([2]; first compound 20 µM)	relative viability ([3]; first compound 0.2 µM)	relative viability ([3]; first compound 0.6325 µM)	relative viability ([3]; first compound 2 µM)	relative viability ([3]; first compound 6.325 µM)	relative viability ([3]; first compound 20 µM)	relative viability ([4]; first compound 0.2 µM)	relative viability ([4]; first compound 0.6325 µM)	relative viability ([4]; first compound 2 µM)	relative viability ([4]; first compound 6.325 µM)	relative viability ([4]; first compound 20 µM)
PC-3 [JPC-3]	0.714	0.532	0.664	0.43	0.825	0.987	1.07	1.02	0.438	0.787	0.854	0.886	0.762	0.498	1.21	0.737	0.937	0.732	0.319
NCI-H1993	0.725	0.888	0.795	1.03	0.528	0.603	0.524	0.661	0.6	0.535	0.69	0.607	0.654	0.513	0.546	0.829	1.07	0.798	0.507
NCI-H2087	0.424	0.788	0.712	0.594	0.909	0.97	1.02	0.734	0.882	0.306	0.314	0.322	0.281	0.299	0.702	0.651	0.804	0.741	0.822
HOP-62	0.506	0.663	0.41	0.547	0.744	0.759	0.73	0.609	0.711	0.214	0.247	0.226	0.19	0.188	0.873	0.58	0.675	0.456	0.795
HCC-15	0.762	0.883	0.752	0.967	0.74	0.699	0.625	0.627	0.642	0.738	0.633	0.588	0.617	0.798	0.79	0.847	0.791	0.695	0.806
NCI-H2405	1.04	1.1	0.88	1.11	0.214	0.222	0.254	0.199	0.21	0.773	0.779	0.863	0.699	0.673	1.25	1.08	1.05	0.99	0.995
COR-L 105	0.843	0.912	0.727	0.878	0.285	0.358	0.481	0.313	0.188	0.691	0.643	0.649	0.739	0.535	0.769	0.645	0.922	0.837	0.7
PC-14	0.636	0.881	0.406	0.687	0.216	0.317	0.318	0.257	0.0365	0.27	0.241	0.245	0.21	0.182	0.74	0.923	0.693	0.768	0.0952
NCI-H1975	0.699	0.872	0.687	0.885	0.466	0.365	0.413	0.361	0.462	0.401	0.42	0.399	0.372	0.355	0.854	0.76	0.711	0.701	0.719
LCLC-103H	0.736	0.797	0.429	0.636	0.524	0.567	0.548	0.565	0.471	0.779	0.757	0.743	0.764	0.599	0.943	0.814	0.881	0.732	0.762
NCI-H661	0.742	0.786	0.806	0.762	0.781	0.953	0.962	0.762	0.706	0.527	0.598	0.632	0.495	0.545	0.862	0.789	0.849	0.783	0.691
NCI-H460	0.655	0.686	0.697	1.01	0.525	0.547	0.556	0.417	0.486	0.523	0.481	0.479	0.439	0.463	0.67	0.694	0.706	0.709	0.685
NCI-H2023	0.508	0.725	0.627	0.643	0.64	0.56	0.616	0.572	0.6	0.279	0.227	0.225	0.211	0.201	0.725	0.676	0.675	0.502	0.718
LU99A	0.503	0.482	0.466	0.591	0.589	0.489	0.6	0.524	0.548	0.88	0.833	0.917	0.848	0.776	0.501	0.548	0.419	0.388	0.551
SW 1573	0.492	0.865	1.12	1.12	0.532	0.533	0.594	0.355	0.489	0.589	0.535	0.577	0.456	0.462	0.794	1.04	1.08	0.803	0.633
COR-L23	0.404	0.495	0.452	0.587	0.635	0.516	0.542	0.461	0.6	0.452	0.493	0.478	0.419	0.404	0.521	0.531	0.521	0.476	0.371
NCI-H23	0.445	0.583	0.483	0.448	0.921	0.898	0.768	0.744	0.861	0.303	0.309	0.293	0.292	0.327	0.79	0.727	0.716	0.595	0.541

Cell Line	relative viability ([1]; first compound 0.001581 µM)	relative viability ([1]; first compound 0.005 µM)	relative viability ([1]; first compound 0.01581 µM)	relative viability ([1]; first compound 0.05 µM)	relative viability ([2]; first compound 0.2 µM)	relative viability ([2]; first compound 0.6325 µM)	relative viability ([2]; first compound 2 µM)	relative viability ([2]; first compound 6.325 µM)	relative viability ([2]; first compound 20 µM)	relative viability ([3]; first compound 0.2 µM)	relative viability ([3]; first compound 0.6325 µM)	relative viability ([3]; first compound 2 µM)	relative viability ([3]; first compound 6.325 µM)	relative viability ([3]; first compound 20 µM)	relative viability ([4]; first compound 0.2 µM)	relative viability ([4]; first compound 0.6325 µM)	relative viability ([4]; first compound 2 µM)	relative viability ([4]; first compound 6.325 µM)	relative viability ([4]; first compound 20 µM)
ChaGo-K-1	0.718	0.767	0.711	0.739	0.605	0.603	0.781	0.552	0.579	0.521	0.524	0.529	0.54	0.507	0.85	0.724	0.719	0.738	0.733
NCI-H1944	0.464	0.641	0.542	0.619	0.218	0.196	0.223	0.213	0.192	0.398	0.389	0.439	0.368	0.399	0.557	0.561	0.541	0.474	0.517
NCI-H322M	0.924	1.01	0.97	1.17		0.275	0.274	0.256	0.218	0.619	0.704	0.697	0.717	0.576	0.93	0.931	1.05	0.899	0.761
EMC-BAC-2	0.406	0.474	0.375	0.546	0.336	0.368	0.368	0.316	0.325	1.01	1.05	1.01	0.993	0.927	0.831	0.628	0.454	0.398	0.437
NCI-H3122	0.946	1.09	0.924	0.236	0.931	0.803	0.886	0.812	0.828	0.438	0.484	0.611	0.478	0.378	1.11	0.988	1.17	0.998	0.96
NCI-H520	0.833	0.724	0.758	0.712	0.24	0.212	0.207	0.185	0.235	0.54	0.467	0.484	0.517	0.548	0.79	0.77	0.753	0.769	0.646
NCI-H2342	0.789	0.778	0.751	0.785	0.311	0.301	0.304	0.312	0.297	0.737	0.771	0.666	0.676	0.803	0.673	0.833	0.9	0.742	0.811
HARA	0.659	0.69	0.441	0.672	0.238	0.301	0.309	0.29	0.23	0.677	0.607	0.594	0.523	0.489	0.575	0.514	0.511	0.573	0.521
NCI-H1650	0.528	0.534	0.576	0.572	0.356	0.329	0.343	0.318	0.28	0.45	0.422	0.515	0.457	0.532	0.529	0.639	0.578	0.648	0.483
NCI-H358	0.639	0.745	0.678	0.714	0.13	0.151	0.17	0.142	0.135	0.19	0.224	0.223	0.228	0.207	0.558	0.656	0.6	0.647	0.553
NCI-H2347	0.63	0.547	0.515	0.483	0.328	0.329	0.298	0.303	0.282	0.613	0.645	0.669	0.595	0.604	0.476	0.668	0.674	0.629	0.635
UMC-11	0.396	0.391	0.381	0.354	0.567	0.469	0.536	0.489	0.442	0.462	0.628	0.614	0.524	0.521	0.388	0.415	0.423	0.391	0.264
NCI-H2009	0.695	0.743	0.711	0.792	0.316	0.299	0.404	0.306	0.326	0.353	0.404	0.417	0.355	0.397	0.826	0.737	0.712	0.706	0.684
NCI-H1437	0.711	0.751	0.838	0.743	0.388	0.438	0.45	0.4	0.393	0.604	0.54	0.586	0.61	0.572	0.748	0.748	0.915	0.831	0.92
NCI-H647	0.353	0.515	0.635	0.585	0.206	0.22	0.303	0.117	0.111	0.339	0.429	0.337	0.283	0.293	0.886	0.705	0.494	0.304	0.153
NCI-H1395	0.721	0.789		0.768	0.429	0.393	0.491	0.402	0.392	0.707	0.716	0.849	0.657	0.717	0.901	0.837	0.663	0.569	0.673
NCI-H1915	0.428	0.439	0.462	0.477	0.348	0.328	0.288	0.215	0.198	0.246	0.266	0.277	0.268	0.223	0.61	0.517	0.507	0.343	0.241

— the supplement of paper PMC10307832
